# Measured values published in patent publication US20240009219A1, “COMPOSITIONS AND METHODS USING A COMBINATION OF OLEUROPEIN AND NICOTINAMIDE RIBOSIDE FOR CELLULAR ENERGY” (SOCIETE DES PRODUITS NESTLE S.A., priority 2020, published 2024).
# Experiments:
# [1] = tested on: myotubes differentiated from C2C12 cells; assay: Mitochondrial calcium measurement with mitochondrially targeted aequorin, caffeine stimulation; assay type: cell-based; conditions: NAD+-containing myotubes; Oea 10 μM, NR 0.5 mM; n=6
# Experimental: C2C12 cells were purchased from ATCC. C2C12 cells were seeded in 96-well plates at a density of 15 000 cells per well in DMEM high glucose (Gibco)+10% fetal calf serum. Myotubes were differentiated from C2C12 cells by growing the cells in DMEM containing 2% horse serum, for 6 days. Mitochondrial calcium measurements were carried out using myotubes infected with the adenovirus (from Sirion biotech) expressing the mitochondrially targeted calcium sensor mitochondrial mutated aequorin (Montero et al., 2004). For aequorin reconstitution, 48 hours after infection, cells or myotubes were incubated for 2 h at room temperature (22±° C.) in standard medium (145 mM NaCl, 5 mM KCl, 1 mM MgCl2, 1 mM CaCl2, 10 mM glucose and 10 mM Hepes, pH 7.4) with 1 μM wild-type coelenterazine. Myotubes were stimulated with 5 mM of caffeine and the total calcium transition during stimulation was calculated as the area under the curve. […] Luminescence was measured at the Cytation 3 cell imaging reader (Biotek). Calibration of the luminescence data into Calcium concentration was carried out using an algorithm as described previously (Alvarez & Montero, 2002). Custom module analysis based on Excel (Microsoft) and GraphPad Prism 7.02 (GraphPad) software was used for quantification.
# [2] = tested on: C. elegans; assay: C. elegans lifespan test; assay type: in vivo, Caenorhabditis elegans; conditions: treated from day 1 of adulthood; NR 100 μM, Oae 200 μM, wild type N2 worms
# Experimental: C. elegans lifespan tests were performed using about 100 animals per condition and scored manually every other day. The experimental measurements of the effect of nicotinamide riboside, oleuropein aglycone, and the combination NR+Oae treatment were started at day 1 of wild type N2 worm adulthood, in a regimen of chronic exposure till experiments termination.
# [3] = tested on: myotubes differentiated from C2C12 cells; assay: NAD+ measurement (NAD/NADH Quantification Kit); assay type: cell-based; conditions: NAD+-depleted myotubes; NR 0.5 mM, Oea 10 μM; n=6
# Experimental: C2C12 cells were purchased from ATCC. C2C12 cells were seeded in 96-well plates at a density of 15 000 cells per well in DMEM high glucose (Gibco)+10% fetal calf serum. Myotubes were differentiated from C2C12 cells by growing the cells in DMEM containing 2% horse serum, for 6 days.
# To obtain a condition of restrictions of NAD bioavailability, C2C12-derived myotubes were treated with 1 μM of FK866, an NAMPT inhibitor, for 3 days before experiment. Luminescence was measured at the Cytation 3 cell imaging reader (Biotek). Calibration of the luminescence data into Calcium concentration was carried out using an algorithm as described previously (Alvarez & Montero, 2002). Custom module analysis based on Excel (Microsoft) and GraphPad Prism 7.02 (GraphPad) software was used for quantification.
# NAD^+ measurements were carried out using myotubes treated as previous described and quantifying with NAD/NADH Quantification Kit (Sigma-Aldrich).
Structure (SMILES),"integrated mitochondrial calcium rise, evoked by 5 mM caffeine [1]",mean lifespan extension [2],NAD production [3]
"C/C=C1/C(O)OC=C(C(=O)OC)[C@H]1CC(=O)OCCc1ccc(O)c(O)c1 (mixture of isomers) [Oleuropein aglycone, oleuropein aglycone]",activates mitochondria via mitochondrial Ca^2+ rise,10%,does not boosts NAD production
"NC(=O)c1ccc[n+]([C@@H]2O[C@H](CO)[C@@H](O)[C@H]2O)c1 [Nicotinamide riboside, nicotinamide riboside]",does not boost mitochondrial Ca^2+ rise,5%,
